{"source": "patent US20240043473A1", "about": "“NOOTROPIC PEPTIDES FOR TREATING LYSOSOMAL STORAGE DISEASES” (Phoenix Nest Inc., priority 2021, published 2024)", "origin": "cited, not measured here", "tested_on": "BDNF and its signaling receptor TrkB in the hippocampus", "settings": "in animals; cited from earlier work"}
{"substance": "Semax: synthetic analogue of ACTH(4-10), consisting of ACTH(4-7) and the C-terminal tripeptide Pro-Gly-Pro; MEHFPGP (SEQ ID NO: 1)", "values": [{"measurement": "levels and expression of BDNF and its signaling receptor TrkB in the hippocampus", "value": "rapidly elevates the levels and expression"}, {"measurement": "serotonergic and dopaminergic brain systems", "value": "rapidly activates"}]}
